# Results taken from US6608086B2, “Dihydropyridines and new uses thereof” (Synaptic Pharmaceutical Corporation, priority 1993, dated 2003).
# Where two headings read alike, the source gives them in different places.
# How the values were obtained:
# [1] = biological target: T1, α1B Human Adrenergic Receptor (Homo sapiens, UniProt P35368); assay: Radioligand binding, [3H]prazosin, cloned human α1B adrenergic receptor; details: cloned human receptor, LM(tk-) cell membranes, mean
# T1 construct: The entire coding region of α1B (1563 bp); expressed in transfected cells
# T1 sequence (P35368 1-520): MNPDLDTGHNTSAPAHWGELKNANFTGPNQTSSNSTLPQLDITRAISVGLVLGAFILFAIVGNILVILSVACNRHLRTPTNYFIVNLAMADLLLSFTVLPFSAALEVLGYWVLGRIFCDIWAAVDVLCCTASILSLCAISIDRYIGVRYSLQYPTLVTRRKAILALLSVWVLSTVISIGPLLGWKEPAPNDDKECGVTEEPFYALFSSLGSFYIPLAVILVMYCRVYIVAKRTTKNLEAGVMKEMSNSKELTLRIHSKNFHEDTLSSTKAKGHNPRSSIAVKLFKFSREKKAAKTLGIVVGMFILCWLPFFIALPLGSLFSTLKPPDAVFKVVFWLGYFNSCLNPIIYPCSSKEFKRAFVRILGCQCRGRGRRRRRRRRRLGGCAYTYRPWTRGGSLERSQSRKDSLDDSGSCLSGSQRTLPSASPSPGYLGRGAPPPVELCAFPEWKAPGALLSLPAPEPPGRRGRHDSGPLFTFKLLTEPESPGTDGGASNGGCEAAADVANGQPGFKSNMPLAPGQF
# Method in brief: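 [3H]prazosin (0.5 nM) binding was run for 20 min at 37° C in pH 7.5 Tris/MgCl2/ascorbate buffer on membranes of LM(tk−) cells stably expressing the cloned receptor. Filtration through GF/B ended the reaction; 10 μM phentolamine gave nonspecific binding.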
# α2A receptor = biological target: T2, α2A receptor (Homo sapiens, UniProt P08913); assay: Competition binding, [3H]rauwolscine, human α2A receptor
# T2 construct: host or cells: LM(tk-) cells, line L-α2A
# T2 sequence (P08913 1-465): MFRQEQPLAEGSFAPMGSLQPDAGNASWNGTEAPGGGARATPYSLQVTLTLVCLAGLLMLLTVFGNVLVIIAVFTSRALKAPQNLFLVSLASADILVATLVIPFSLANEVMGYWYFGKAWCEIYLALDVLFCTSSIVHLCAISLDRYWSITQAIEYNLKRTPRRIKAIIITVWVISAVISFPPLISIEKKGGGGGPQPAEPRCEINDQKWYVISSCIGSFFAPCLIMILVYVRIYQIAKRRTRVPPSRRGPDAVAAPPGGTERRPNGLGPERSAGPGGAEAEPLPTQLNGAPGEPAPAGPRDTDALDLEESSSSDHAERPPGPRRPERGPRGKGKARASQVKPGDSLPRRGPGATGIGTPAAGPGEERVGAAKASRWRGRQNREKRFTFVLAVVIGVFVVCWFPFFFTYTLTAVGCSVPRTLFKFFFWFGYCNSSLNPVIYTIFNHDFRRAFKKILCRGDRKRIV
# Method in brief: (§1)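 LM(tk−) lysates, stable α2A/α2B/α2C transfectants; 25 mM glycylglycine pH 7.6 (RT). [3H]rauwolscine 0.5 nM, equilibrium competition; NSB 10 μM phentolamine. GF/B filtration, cell harvester.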
# α2B receptor = biological target: T3, α2B receptor (Homo sapiens, UniProt P18089); assay: Competition binding, [3H]rauwolscine, human α2B receptor
# T3 construct: host or cells: LM(tk-) cells, line L-NGC-α2B
# T3 sequence (P18089 1-450): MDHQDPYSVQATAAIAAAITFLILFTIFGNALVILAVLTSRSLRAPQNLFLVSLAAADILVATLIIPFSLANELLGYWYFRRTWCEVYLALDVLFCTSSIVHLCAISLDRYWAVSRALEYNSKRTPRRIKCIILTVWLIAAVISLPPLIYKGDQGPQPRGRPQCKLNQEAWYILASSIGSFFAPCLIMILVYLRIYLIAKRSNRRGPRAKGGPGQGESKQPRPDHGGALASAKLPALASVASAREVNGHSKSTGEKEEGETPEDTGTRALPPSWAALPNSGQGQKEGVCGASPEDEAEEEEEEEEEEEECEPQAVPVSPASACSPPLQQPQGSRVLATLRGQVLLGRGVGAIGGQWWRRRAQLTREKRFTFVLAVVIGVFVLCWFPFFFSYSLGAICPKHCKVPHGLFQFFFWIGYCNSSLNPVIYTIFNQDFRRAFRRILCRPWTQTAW
# Method in brief: as §1
# α2C receptor = biological target: T4, α2C receptor (Homo sapiens, UniProt P18825); assay: Competition binding, [3H]rauwolscine, human α2C receptor
# T4 construct: host or cells: LM(tk-) cells, line L-α2C
# T4 sequence (P18825 1-462): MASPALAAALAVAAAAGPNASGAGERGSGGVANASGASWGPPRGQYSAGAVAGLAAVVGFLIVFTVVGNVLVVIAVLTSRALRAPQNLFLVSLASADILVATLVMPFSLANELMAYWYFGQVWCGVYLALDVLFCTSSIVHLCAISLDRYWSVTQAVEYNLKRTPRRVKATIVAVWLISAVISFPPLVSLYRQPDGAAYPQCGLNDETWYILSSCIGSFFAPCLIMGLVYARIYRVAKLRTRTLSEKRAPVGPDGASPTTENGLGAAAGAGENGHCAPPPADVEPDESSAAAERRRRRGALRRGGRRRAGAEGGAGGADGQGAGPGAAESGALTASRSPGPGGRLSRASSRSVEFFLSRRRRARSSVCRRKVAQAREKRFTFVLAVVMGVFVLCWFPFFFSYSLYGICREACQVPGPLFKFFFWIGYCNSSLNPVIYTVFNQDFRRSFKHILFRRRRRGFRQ
# Method in brief: as §1
# [2] = read-out: PKi alpha-1 1b (converted)
# [3] = [3H]rauwolscine, human receptor, LM(tk-) cell lysates, mean, read-out: PKi alpha-2 2a (converted)
# [4] = [3H]rauwolscine, human receptor, LM(tk-) cell lysates, mean, read-out: PKi alpha-2 2b (converted)
# [5] = [3H]rauwolscine, human receptor, LM(tk-) cell lysates, mean, read-out: PKi alpha-2 2c (converted)
# [6] = PKi alpha-2 2b, [3H]rauwolscine, human receptor, LM(tk-) cell lysates, mean
Structure (SMILES),"Ki [1, 2] [nM]",Ki (α2A receptor; [3]) [nM],Ki (α2B receptor; [4]) [nM],Ki (α2C receptor; [5]) [nM],Ki (α2A receptor) [nM],Ki (α2B receptor; PKi alpha-2 2b) [nM],Ki (α2C receptor; PKi alpha-2 2c) [nM],Ki ([1]; PKi alpha-1 1b) [nM],Ki (α2B receptor; [6]) [nM]
"CCC1=C(C(N)=O)C(c2ccc([N+](=O)[O-])cc2)C(C(=O)NCCCN2CCC(C(=O)OC)(c3ccccc3)CC2)=C(CCCCN=[N+]=[N-])N1 (centres unmarked) [Example 165, 2-(4-Azidobutyl)-3-{N-[3-(4-methoxycarbonyl-4-phenylpiperidin-1-yl)propyl]}carboxamido-5-carboxamido-6-ethyl-1,4-dihydro-4-(4-nitrophenyl)pyridine]",575,3020,1950,1510,–,–,–,–,–
"CCC1=C(C(N)=O)C(c2ccc([N+](=O)[O-])cc2)C(C(=O)NCCCN2CCC(C(=O)OC)(c3ccccc3)CC2)=C(CCCCN)N1 (centres unmarked) [Example 166, 2-(4-Aminobutyl)-5-carboxamido-6-ethyl-1,4-dihydro-3-{N-[3-(4-methoxycarbonyl-4-phenylpiperidin-1-yl)propyl]}carboxamido-4-(4-nitrophenyl)pyridine]",1320,1860,3890,1020,–,–,–,–,–
"COC(=O)C1=C(C)NC(CCCCN)=C(C(=O)NCCCN2CCC(c3ccccc3)(c3ccccc3)CC2)C1c1ccc([N+](=O)[O-])cc1 (centres unmarked) [Example 170, 2-(4-Aminobutyl)-1,4-dihydro-5-methoxycarbonyl-6-methyl-4-(4-nitrophenyl)-3-{N-[3-(4,4-diphenylpiperidin-1-yl)propyl]}carboxamidopyridine]",105,–,–,–,6170,8710,4900,–,–
"CCC1=C(C(N)=O)C(c2ccc([N+](=O)[O-])cc2)C(C(=O)NCCCN2CCC(c3ccccc3)(c3ccccc3)CC2)=C(CCCCN)N1 (centres unmarked) [Example 171, 2-(4-Aminobutyl)-5-carboxamido-6-ethyl-1,4-dihydro-4-(4-nitrophenyl)-3-{N-[3-(4,4-diphenylpiperidin-1-yl)propyl]}carboxamidopyridine]",–,1100,–,575,–,–,–,617,2000
"CCC1=C(C(=O)NC)C(c2ccc([N+](=O)[O-])cc2)C(C(=O)NCCCN2CCC(c3ccccc3)(c3ccccc3)CC2)=C(CCCCN)N1 (centres unmarked) [Example 172, 2-(4-Aminobutyl)-6-ethyl-1,4-dihydro-5-(N-methyl)carboxamido-4-(4-nitrophenyl)-3-{N-[3-(4,4-diphenylpiperidin-1-yl)propyl]}carboxamidopyridine]",–,2340,–,692,–,–,–,617,3470
"CCC1=C(C(=O)NC)C(c2ccc([N+](=O)[O-])cc2)C(C(=O)NCCCN2CCC(c3ccccc3)(c3ccccc3)CC2)=C(CCCCOC)N1 (centres unmarked) [Example 173, 6-Ethyl-1,4-dihydro-2-(4-methoxybutyl)-5-(N-methyl)carboxamido-4-(4-nitrophenyl)-3-{N-[3-(4,4-diphenylpiperidin-1-yl)propyl]}carboxamidopyridine]",–,269,–,1480,–,–,–,427,955
"CCC1=C(C(=O)NC)C(c2ccc([N+](=O)[O-])cc2)C(C(=O)NCCCN2CCC(C(=O)OC)(c3ccccc3)CC2)=C(CCCCOC)N1 (centres unmarked) [Example 174, 6-Ethyl-1,4-dihydro-2-(4-methoxybutyl)-3-{N-[3-(4-methoxycarbonyl-4-phenylpiperidin-1-yl)propyl]}carboxamido-5-(N-methyl)carboxamido-4-(4-nitrophenyl)pyridine]",1910,2000,955,676,–,–,–,–,–
"CC(=O)C1=C(C)NC(CCCCN)=C(C(=O)NCCCN2CCC(c3ccccc3)(c3ccccc3)CC2)C1c1ccc([N+](=O)[O-])cc1 (centres unmarked) [Example 176, 5-Acetyl-2-(4-aminobutyl)-1,4-dihydro-6-methyl-4-(4-nitrophenyl)-3-{N-[3-(4,4-diphenylpiperidin-1-yl)propyl]}carboxamidopyridine]",–,977,–,724,–,–,–,158,1200
